Assay results reported in patent US8637484B2, “Modulation of growth hormone receptor expression and insulin-like growth factor expression” (Antisense Therapeutic Limited, priority 2003, dated 2014).
In the oligonucleotide strings, read from the 5' end, every base follows the letter of its sugar. An asterisk marks phosphorothioate; unmarked linkages are phosphodiester. Other units and linkages are bracketed, terminal groups are in braces. A string of capitals states the bases alone. e = 2'-O-(2-methoxyethyl) (MOE); [5mC] = 5-methylcytosine; d = 2'-deoxy (DNA)

System: serum insulin-like growth factor-I
Assay: Serum IGF-I by radioimmunoassay, 1 week pilot study in Balb/C(a) mice
Format: in vivo, mouse
Settings: for % IGF-I reduction: 30 mg/kg once every 2 days, serum IGF-I at day 7 compared to saline control at day 7
Description: Forty male Balb/C(a) mice weighing 9 to 10 g were placed into cages, 4 animals per cage, and allowed to assimilate into their environment with new littermates ˜1 week prior (Day −7) to the commencement of 1 week study. Mice of this age would be at their maximum growth rate. Their body weights were measured and recorded every second day during this period. When mice weighed 11 g (day −2), a blood sample was collected under anesthesia as described below, and a serum IGF-I assay was performed to determine pre-treatment values and to aid in the assigning of mice to treatment groups in order to reduce animal variability. To obtain the blood sample, the animals were anaesthetized with pentobarbital (50 mg/kg i.p.) and non-fasting blood samples collected exactly 5 minutes later from the retrobulbar plexus through heparinized capillary tubes under light ether anesthesia. The 40 animals were placed into five groups with each group having a similar weight average and similar IGF-I average concentration for the trial.
Animals (n=8/group) were designated to the following five treatment groups:
Saline, antisense, mismatch control and octreotide samples were prepared, and coded for blinding. Animals were given a subcutaneous dose of saline every second day, and mismatch control or antisense with administration on days 0, 2, 4, 6. Animals were given twice daily doses of 25 μg octreotide. Animals were housed 4 per cage, for the duration of one week. They had access to a pre-determined quantity of standard mouse food and water at all times throughout the experiment. They were housed in a quiet, temperature- and humidity-maintained environment for the entirety of the study. At day 0 and before treatment on each day or second day, the animals had their body weight and food intake measured, enabling the correct dose of agent to be administered. The animals were monitored closely for any changes in fur, skin, eye, locomotion or other changes in behavior. No problems were observed. Every second day from day −7 to day 7 body weight and food intake were measured.
On day 7, one day after the last dose of antisense, and/or after the last octreotide dose, the animals were anaesthetized with pentobarbital (50 mg/kg i.p.) and non-fasting blood samples collected exactly 5 minutes later from the retrobulbar plexus through heparinized capillary tubes under light ether anesthesia (as on day −7 and 0).
At day −2 and day 7, serum IGF-I measurement was done by radioimmunoassay. Serum IGF-I level is the most widely used measure of growth hormone biological activity in human therapy. It is used to measure the efficacy of growth hormone antagonist treatments like Trovert, which block cells' responsiveness to excess growth hormone, and dopamine agonists and octreotide somatostatin […] drugs that block growth hormone secretion from the pituitary.

## acaaagatccatacctgaga (eA*e[5mC]*eA*eA*eA*dG*dA*dT*d[5mC]*d[5mC]*dA*dT*dA*d[5mC]*d[5mC]*eT*eG*eA*eG*eA; antisense) [ISIS 227446]
3 mg/kg once every 2 days, day 7
  effect on serum IGF-I: no effect
3 mg/kg sc once every 2 days (days 0, 2, 4, 6)
  IGF-I (ng/ml) Day 7: 129.63 ± 33.76 ng/mL
  % IGF-I reduction: 45%
Listed as ASO
  % IGF-I reduction: 44.51%
30 mg/kg sc every second day for one week
  serum IGF-1, % of the control (saline) group: 55%
30 mg/kg sc once every 2 days (days 0, 2, 4, 6)
  IGF-I (ng/ml) Day 7: 56.95 ± 10.34 ng/mL
pre-treatment value of the group given 3 mg/kg sc once every 2 days
  IGF-I (ng/ml) Day −2: 216.23 ± 78.14 ng/mL
pre-treatment value of the group given 30 mg/kg sc once every 2 days
  IGF-I (ng/ml) Day −2: 181.84 ± 71.32 ng/mL
